Experimental data published in US20250144067A1, “PERSONALIZED STARVATION THERAPY FOR CANCER” (Faeth Therapeutics, Inc., priority 2021, published 2025).
Structures can show the parent of a compound that is named as a salt.

Test system: NCI-H292 lung cancer cells
Assay: FDA drug screening, complete media vs cholesterol-free media without statin (TABLE 1)
Format: cell-based, human
Settings: not given

| SMILES | Cholesterol-free | Complete | Difference |
| --- | --- | --- | --- |
| CC(C)c1cccc(C(C)C)c1O [Propofol] | 0.9745 | 0.7898 | −0.18 |
| CN(C)C(=O)Oc1ccc[n+](C)c1.[Br-] [Pyridostigmine (bromide)] | 0.882 | 0.9353 | 0.05 |

Same assay, conditions: Complete minus Cholesterol-free; >0 enhanced anti-cancer activity, about 0 neutral, <0 antagonist

| SMILES | Difference |
| --- | --- |
| CCCN(CCC)S(=O)(=O)c1ccc(C(=O)O)cc1 [Probenecid] | −0.02 |
| CCCN(CCC)C(=O)C(CCC(=O)O)NC(=O)c1ccccc1 (stereo not drawn) [Proglumide (sodium)] | −0.28 |
| CCCNCC(O)COc1ccccc1C(=O)CCc1ccccc1 (stereo not drawn) [Propafenone (hydrochloride)] | 0.02 |
| CC(C)[N+](C)(CCOC(=O)C1c2ccccc2Oc2ccccc21)C(C)C.[Br-] [Propantheline (bromide)] | −0.02 |
| CCCc1cc(=O)[nH]c(=S)[nH]1 [Propylthiouracil] | −0.23 |
| CNCCCC1c2ccccc2C=Cc2ccccc21 [Protriptyline (hydrochloride)] | −0.19 |
| O=c1c(-c2ccc(O)cc2)coc2c([C@@H]3O[C@H](CO)[C@@H](O)[C@H](O)[C@H]3O)c(O)ccc12 [Puerarin] | −0.27 |
| COc1ccc(C[C@H](N)C(=O)N[C@H]2[C@@H](O)[C@H](n3cnc4c(N(C)C)ncnc43)O[C@@H]2CO)cc1 [Puromycin (dihydrochloride)] | −0.02 |
| NC(=O)c1cnccn1 [Pyrazinamide] | 0.04 |

Same assay, conditions: Complete minus Cholesterol-free; […]

| SMILES | Difference |
| --- | --- |
| CCCOc1ccc2c(c1)CC[C@@H]1[C@@H]2CC[C@]2(C)[C@@H](OC)CC[C@@H]12 [Promestriene] | −0.77 |

Same assay, conditions: Complete minus Cholesterol-free; greater than 0 enhanced anti-cancer activity, about 0 neutral, below 0 antagonist

| SMILES | Difference |
| --- | --- |
| [H]/N=C(\N/C(=N/[H])Nc1ccc(Cl)cc1)NC(C)C [Proguanil] | −0.09 |
| CN(C)CCCN1c2ccccc2Sc2ccccc21 [Promazine (hydrochloride)] | −0.18 |
| Cc1c(C(C)C)c(=O)n(-c2ccccc2)n1C [Propyphenazone] | −0.12 |

Same assay, conditions: NCI-H292 cells in cholesterol-free media without statin

| SMILES | Cholesterol-free |
| --- | --- |
| CCCOc1ccc2c(c1)CC[C@@H]1[C@@H]2CC[C@]2(C)[C@@H](OC)CC[C@@H]12 [Promestriene] | 1.741 |

Same assay, conditions: NCI-H292 cells in complete media

| SMILES | Complete |
| --- | --- |
| CCCOc1ccc2c(c1)CC[C@@H]1[C@@H]2CC[C@]2(C)[C@@H](OC)CC[C@@H]12 [Promestriene] | 0.9695 |

Same assay, conditions: NCI-H292 cells, FDA drug library screen, cholesterol-free media without statin

| SMILES | Cholesterol-free |
| --- | --- |
| [H]/N=C(\N/C(=N/[H])Nc1ccc(Cl)cc1)NC(C)C [Proguanil] | 1.148 |
| CN(C)CCCN1c2ccccc2Sc2ccccc21 [Promazine (hydrochloride)] | 1.243 |
| Cc1c(C(C)C)c(=O)n(-c2ccccc2)n1C [Propyphenazone] | 1.128 |

Same assay, conditions: NCI-H292 cells, FDA drug library screen, complete media

| SMILES | Complete |
| --- | --- |
| [H]/N=C(\N/C(=N/[H])Nc1ccc(Cl)cc1)NC(C)C [Proguanil] | 1.059 |
| CN(C)CCCN1c2ccccc2Sc2ccccc21 [Promazine (hydrochloride)] | 1.064 |
| Cc1c(C(C)C)c(=O)n(-c2ccccc2)n1C [Propyphenazone] | 1.005 |

Same assay, conditions: NCI-H292 cells, cholesterol-free media without statin

| SMILES | Cholesterol-free |
| --- | --- |
| CCCN(CCC)C(=O)C(CCC(=O)O)NC(=O)c1ccccc1 (stereo not drawn) [Proglumide (sodium)] | 1.258 |
| CCCc1cc(=O)[nH]c(=S)[nH]1 [Propylthiouracil] | 1.082 |
| CNCCCC1c2ccccc2C=Cc2ccccc21 [Protriptyline (hydrochloride)] | 1.347 |
| O=c1c(-c2ccc(O)cc2)coc2c([C@@H]3O[C@H](CO)[C@@H](O)[C@H](O)[C@H]3O)c(O)ccc12 [Puerarin] | 1.203 |

Same assay, conditions: NCI-H292 cells, cholesterol-free media without statin, FDA drug library screen

| SMILES | Cholesterol-free |
| --- | --- |
| CCCN(CCC)S(=O)(=O)c1ccc(C(=O)O)cc1 [Probenecid] | 0.9245 |
| CCCNCC(O)COc1ccccc1C(=O)CCc1ccccc1 (stereo not drawn) [Propafenone (hydrochloride)] | 1.064 |
| CC(C)[N+](C)(CCOC(=O)C1c2ccccc2Oc2ccccc21)C(C)C.[Br-] [Propantheline (bromide)] | 1.311 |
| COc1ccc(C[C@H](N)C(=O)N[C@H]2[C@@H](O)[C@H](n3cnc4c(N(C)C)ncnc43)O[C@@H]2CO)cc1 [Puromycin (dihydrochloride)] | 0.005958 |
| NC(=O)c1cnccn1 [Pyrazinamide] | 0.9745 |

Same assay, conditions: NCI-H292 cells, complete media

| SMILES | Complete |
| --- | --- |
| CCCN(CCC)C(=O)C(CCC(=O)O)NC(=O)c1ccccc1 (stereo not drawn) [Proglumide (sodium)] | 0.9781 |
| CCCc1cc(=O)[nH]c(=S)[nH]1 [Propylthiouracil] | 0.8473 |
| O=c1c(-c2ccc(O)cc2)coc2c([C@@H]3O[C@H](CO)[C@@H](O)[C@H](O)[C@H]3O)c(O)ccc12 [Puerarin] | 0.9306 |

Same assay, conditions: NCI-H292 cells, complete media, FDA drug library screen

| SMILES | Complete |
| --- | --- |
| CCCN(CCC)S(=O)(=O)c1ccc(C(=O)O)cc1 [Probenecid] | 0.9089 |
| CCCNCC(O)COc1ccccc1C(=O)CCc1ccccc1 (stereo not drawn) [Propafenone (hydrochloride)] | 1.086 |
| CC(C)[N+](C)(CCOC(=O)C1c2ccccc2Oc2ccccc21)C(C)C.[Br-] [Propantheline (bromide)] | 1.294 |
| COc1ccc(C[C@H](N)C(=O)N[C@H]2[C@@H](O)[C@H](n3cnc4c(N(C)C)ncnc43)O[C@@H]2CO)cc1 [Puromycin (dihydrochloride)] | −0.01645 |
| NC(=O)c1cnccn1 [Pyrazinamide] | 1.011 |

Test system: NCI-H292 lung cancer cells
Assay: FDA drug screening, complete media vs cholesterol-free media with simvastatin (TABLE 2)
Format: cell-based, human
Settings: not given

| SMILES | Cholesterol-free media + simvastatin (0.04 μM) | Complete Media | Difference |
| --- | --- | --- | --- |
| CC(C)c1cccc(C(C)C)c1O [Propofol] | 1.559 | 1.224 | −0.33 |
| CN(C)C(=O)Oc1ccc[n+](C)c1.[Br-] [Pyridostigmine (bromide)] | 1.546 | 1.09 | −0.46 |

Same assay, conditions: NCI-H292 cells, FDA drug library screen, cholesterol-free media with simvastatin 0.04 μM

| SMILES | Cholesterol-free media + simvastatin (0.04 μM) |
| --- | --- |
| CN(C)CCCN1c2ccccc2Sc2ccccc21 [Promazine (hydrochloride)] | 0.8407 |
| Cc1c(C(C)C)c(=O)n(-c2ccccc2)n1C [Propyphenazone] | 2.378 |
| NC(=O)c1cnccn1 [Pyrazinamide] | 0.9396 |

Same assay, conditions: NCI-H292 cells, FDA drug library screen, complete media

| SMILES | Complete Media |
| --- | --- |
| CN(C)CCCN1c2ccccc2Sc2ccccc21 [Promazine (hydrochloride)] | 0.9785 |
| NC(=O)c1cnccn1 [Pyrazinamide] | 0.8009 |

Same assay, conditions: NCI-H292 cells, FDA library drug in cholesterol-free media with simvastatin 0.04 μM

| SMILES | Cholesterol-free media + simvastatin (0.04 μM) |
| --- | --- |
| CNCCCC1c2ccccc2C=Cc2ccccc21 [Protriptyline (hydrochloride)] | 1.142 |

Same assay, conditions: NCI-H292 cells, FDA library drug in complete media

| SMILES | Complete Media |
| --- | --- |
| CNCCCC1c2ccccc2C=Cc2ccccc21 [Protriptyline (hydrochloride)] | 0.7923 |

Same assay, conditions: NCI-H292 cells, cholesterol-free media with simvastatin 0.04 μM; FDA drug library screen (TABLE 2)

| SMILES | Cholesterol-free media + simvastatin (0.04 μM) |
| --- | --- |
| CCCNCC(O)COc1ccccc1C(=O)CCc1ccccc1 (stereo not drawn) [Propafenone (hydrochloride)] | 1.11 |
| CCCc1cc(=O)[nH]c(=S)[nH]1 [Propylthiouracil] | 0.9529 |
| COc1ccc(C[C@H](N)C(=O)N[C@H]2[C@@H](O)[C@H](n3cnc4c(N(C)C)ncnc43)O[C@@H]2CO)cc1 [Puromycin (dihydrochloride)] | −0.002227 |

Same assay, conditions: NCI-H292 cells, cholesterol-free media with simvastatin 0.04 μM; […]

| SMILES | Cholesterol-free media + simvastatin (0.04 μM) |
| --- | --- |
| CCCOc1ccc2c(c1)CC[C@@H]1[C@@H]2CC[C@]2(C)[C@@H](OC)CC[C@@H]12 [Promestriene] | 0.8092 |

Same assay, conditions: NCI-H292 cells, cholesterol-free media with simvastatin 0.04 μM; cell growth value in FDA drug screen

| SMILES | Cholesterol-free media + simvastatin (0.04 μM) |
| --- | --- |
| CC(C)[N+](C)(CCOC(=O)C1c2ccccc2Oc2ccccc21)C(C)C.[Br-] [Propantheline (bromide)] | 1.413 |
| O=c1c(-c2ccc(O)cc2)coc2c([C@@H]3O[C@H](CO)[C@@H](O)[C@H](O)[C@H]3O)c(O)ccc12 [Puerarin] | 0.9456 |

Same assay, conditions: NCI-H292 cells, complete media; FDA drug library screen (TABLE 2)

| SMILES | Complete Media |
| --- | --- |
| CCCNCC(O)COc1ccccc1C(=O)CCc1ccccc1 (stereo not drawn) [Propafenone (hydrochloride)] | 1.1 |
| CCCc1cc(=O)[nH]c(=S)[nH]1 [Propylthiouracil] | 0.939 |
| COc1ccc(C[C@H](N)C(=O)N[C@H]2[C@@H](O)[C@H](n3cnc4c(N(C)C)ncnc43)O[C@@H]2CO)cc1 [Puromycin (dihydrochloride)] | −0.05066 |

Same assay, conditions: NCI-H292 cells, complete media; […]

| SMILES | Complete Media |
| --- | --- |
| CCCOc1ccc2c(c1)CC[C@@H]1[C@@H]2CC[C@]2(C)[C@@H](OC)CC[C@@H]12 [Promestriene] | 0.9277 |

Same assay, conditions: NCI-H292 cells, complete media; cell growth value in FDA drug screen

| SMILES | Complete Media |
| --- | --- |
| CC(C)[N+](C)(CCOC(=O)C1c2ccccc2Oc2ccccc21)C(C)C.[Br-] [Propantheline (bromide)] | 1.449 |
| O=c1c(-c2ccc(O)cc2)coc2c([C@@H]3O[C@H](CO)[C@@H](O)[C@H](O)[C@H]3O)c(O)ccc12 [Puerarin] | 1.081 |

Same assay, conditions: NCI-H292 cells, drug in cholesterol-free media with simvastatin 0.04 μM

| SMILES | Cholesterol-free media + simvastatin (0.04 μM) |
| --- | --- |
| CCCN(CCC)S(=O)(=O)c1ccc(C(=O)O)cc1 [Probenecid] | 1.512 |
| CCCN(CCC)C(=O)C(CCC(=O)O)NC(=O)c1ccccc1 (stereo not drawn) [Proglumide (sodium)] | 1.215 |
| [H]/N=C(\N/C(=N/[H])Nc1ccc(Cl)cc1)NC(C)C [Proguanil] | 1.355 |

Same assay, conditions: NCI-H292 cells, drug in complete media

| SMILES | Complete Media |
| --- | --- |
| CCCN(CCC)S(=O)(=O)c1ccc(C(=O)O)cc1 [Probenecid] | 1.266 |
| CCCN(CCC)C(=O)C(CCC(=O)O)NC(=O)c1ccccc1 (stereo not drawn) [Proglumide (sodium)] | 0.9616 |

Same assay, conditions: complete media minus cholesterol-free media + simvastatin (0.04 μM); >0 enhanced anti-cancer activity, about 0 neutral, <0 antagonist

| SMILES | Difference |
| --- | --- |
| CCCNCC(O)COc1ccccc1C(=O)CCc1ccccc1 (stereo not drawn) [Propafenone (hydrochloride)] | −0.01 |
| CCCc1cc(=O)[nH]c(=S)[nH]1 [Propylthiouracil] | −0.01 |
| Cc1c(C(C)C)c(=O)n(-c2ccccc2)n1C [Propyphenazone] | −1.31 |
| COc1ccc(C[C@H](N)C(=O)N[C@H]2[C@@H](O)[C@H](n3cnc4c(N(C)C)ncnc43)O[C@@H]2CO)cc1 [Puromycin (dihydrochloride)] | −0.05 |

Same assay, conditions: complete media minus cholesterol-free media + simvastatin; >0 enhanced anti-cancer activity, about 0 neutral, <0 antagonist

| SMILES | Difference |
| --- | --- |
| CN(C)CCCN1c2ccccc2Sc2ccccc21 [Promazine (hydrochloride)] | 0.14 |
| CC(C)[N+](C)(CCOC(=O)C1c2ccccc2Oc2ccccc21)C(C)C.[Br-] [Propantheline (bromide)] | 0.04 |
| O=c1c(-c2ccc(O)cc2)coc2c([C@@H]3O[C@H](CO)[C@@H](O)[C@H](O)[C@H]3O)c(O)ccc12 [Puerarin] | 0.14 |

Same assay, conditions: complete media minus cholesterol-free media + simvastatin; […]

| SMILES | Difference |
| --- | --- |
| CCCOc1ccc2c(c1)CC[C@@H]1[C@@H]2CC[C@]2(C)[C@@H](OC)CC[C@@H]12 [Promestriene] | 0.12 |

Same assay, conditions: complete media vs cholesterol-free media + simvastatin (0.04 μM); >0 enhanced anti-cancer activity, about 0 neutral, <0 antagonist

| SMILES | Difference |
| --- | --- |
| CCCN(CCC)S(=O)(=O)c1ccc(C(=O)O)cc1 [Probenecid] | −0.25 |
| CCCN(CCC)C(=O)C(CCC(=O)O)NC(=O)c1ccccc1 (stereo not drawn) [Proglumide (sodium)] | −0.25 |
| [H]/N=C(\N/C(=N/[H])Nc1ccc(Cl)cc1)NC(C)C [Proguanil] | −0.18 |
| CNCCCC1c2ccccc2C=Cc2ccccc21 [Protriptyline (hydrochloride)] | −0.35 |
| NC(=O)c1cnccn1 [Pyrazinamide] | −0.14 |
